Data from PMC6582486, “Stapled EGFR peptide reduces inflammatory breast cancer and inhibits additional HER-driven models of cancer” (Journal of Translational Medicine, 2019).
Where a SMILES comes first, the peptide text is derived from it. Bridges are numbered along the chain shown (N, C = ends). [ ]: non-standard residue; d: D form. R8 = C=CCCCCCC[C@@](C)(N)C(=O)O; S5 = C=CCCC[C@](C)(N)C(=O)O

Assay: Plasma concentration after tail-vein injection (toxicokinetics);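 on SAH-EJ1 concentration in plasma: BQL means below the quantifiable limit of 0.5 µg/mL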
Type: in vivo, CD-1 mice
Method: Toxicology was performed by IITRI. The study was conducted in compliance with the US Food and Drug Administration (FDA) good laboratory practice (GLP) Regulations (Code of Federal Regulations Title 21 Part 58) to evaluate the toxicokinetics, local tolerability, immunogenicity, and potential toxicity of SAH5-EJ1 following three times per week intravenous (IV) dosing for 28 days in mice. Male and female CD-1 IGS [Crl:CD1(ICR)] mice (135 per sex) were received from Wilmington, MA-based Charles River Laboratories, Inc.’s Kingston facility (Stone Ridge, NY).

SMILES: CC[C@H](C)[C@H](NC(=O)[C@H](Cc1c[nH]cn1)NC(=O)[C@H](CCCNC(=N)N)NC(=O)[C@H](CCCNC(=N)N)NC(=O)[C@H](CCCNC(=N)N)NC(=O)[C@H](CCSC)NC(=O)[C@H](Cc1ccccc1)NC(=O)[C@H](C)NC(=O)[C@H](CCCNC(=N)N)NC(=O)[C@H](C)NC(=O)[C@H](CCC(N)=O)NC(=O)[C@H](CCCNC(=N)N)NC(=O)[C@H](C)NC(=O)[C@H](C)NC(=O)[C@H](C)NC(=O)[C@H](CCCNC(=N)N)NC(=O)[C@H](C)NC(=O)[C@@H](N)Cc1ccc(O)cc1)C(=O)N[C@H](C(=O)N[C@@H](CCCNC(=N)N)C(=O)N[C@@H](CCCCN)C(=O)N[C@@H](CCCNC(=N)N)C(=O)N[C@]1(C)CCCCCCC=CCCC[C@@](C)(C(=O)N[C@@H](CCCNC(=N)N)C(=O)N[C@@H](CCC(=O)O)C(N)=O)NC(=O)[C@H](CCC(N)=O)NC(=O)[C@H](CC(C)C)NC(=O)[C@H](CC(C)C)NC(=O)[C@H](CCCNC(=N)N)NC(=O)[C@H](CCCNC(=N)N)NC(=O)[C@H](CC(C)C)NC1=O)C(C)C [SAH5-EJ1] (H-YARAAARQARAFMRRRHIVRKR[R8]LRRLLQ[S5]RE-NH2; staple 23-30)
- SAH-EJ1 concentration in plasma (female, 10 mg/kg IV, day 1, 2 h, mouse 3 of 3): BQL (BQL represents below quantifiable limits (0.5 µg/mL))
- SAH-EJ1 concentration in plasma (female, 10 mg/kg IV, day 1, 4 h, mouse 1 of 3): BQL (BQL represents below quantifiable limits (0.5 µg/mL))
- SAH-EJ1 concentration in plasma (female, 10 mg/kg IV, day 1, 4 h, mouse 2 of 3): BQL (BQL represents below quantifiable limits (0.5 µg/mL))
- SAH-EJ1 concentration in plasma (female, 10 mg/kg IV, day 1, 4 h, mouse 3 of 3): BQL (BQL represents below quantifiable limits (0.5 µg/mL))
- SAH-EJ1 concentration in plasma (female, 10 mg/kg IV, day 1, 8 h, mouse 1 of 3): BQL (BQL represents below quantifiable limits (0.5 µg/mL))
- SAH-EJ1 concentration in plasma (female, 10 mg/kg IV, day 1, 8 h, mouse 2 of 3): BQL (BQL represents below quantifiable limits (0.5 µg/mL))
- SAH-EJ1 concentration in plasma (female, 10 mg/kg IV, day 1, 8 h, mouse 3 of 3): BQL (BQL represents below quantifiable limits (0.5 µg/mL))
- SAH-EJ1 concentration in plasma (female, 10 mg/kg IV, day 1, 24 h, mouse 1 of 3): BQL (BQL represents below quantifiable limits (0.5 µg/mL))
- SAH-EJ1 concentration in plasma (female, 10 mg/kg IV, day 1, 24 h, mouse 2 of 3): BQL (BQL represents below quantifiable limits (0.5 µg/mL))
- SAH-EJ1 concentration in plasma (female, 10 mg/kg IV, day 1, 24 h, mouse 3 of 3): BQL (BQL represents below quantifiable limits (0.5 µg/mL))
- SAH-EJ1 concentration in plasma (female, 15 mg/kg IV, day 1, 0.5 h, mouse 3 of 3): BQL (BQL represents below quantifiable limits (0.5 µg/mL))
- SAH-EJ1 concentration in plasma (female, 15 mg/kg IV, day 1, 1 h, mouse 2 of 3): BQL (BQL represents below quantifiable limits (0.5 µg/mL))
- SAH-EJ1 concentration in plasma (female, 15 mg/kg IV, day 1, 2 h, mouse 1 of 3): BQL (BQL represents below quantifiable limits (0.5 µg/mL))
- SAH-EJ1 concentration in plasma (female, 15 mg/kg IV, day 1, 2 h, mouse 2 of 3): BQL (BQL represents below quantifiable limits (0.5 µg/mL))
- SAH-EJ1 concentration in plasma (female, 15 mg/kg IV, day 1, 2 h, mouse 3 of 3): BQL (BQL represents below quantifiable limits (0.5 µg/mL))
- SAH-EJ1 concentration in plasma (female, 15 mg/kg IV, day 1, 4 h, mouse 1 of 3): BQL (BQL represents below quantifiable limits (0.5 µg/mL))
- SAH-EJ1 concentration in plasma (female, 15 mg/kg IV, day 1, 4 h, mouse 2 of 3): BQL (BQL represents below quantifiable limits (0.5 µg/mL))
- SAH-EJ1 concentration in plasma (female, 15 mg/kg IV, day 1, 4 h, mouse 3 of 3): BQL (BQL represents below quantifiable limits (0.5 µg/mL))
- SAH-EJ1 concentration in plasma (female, 15 mg/kg IV, day 1, 8 h, mouse 1 of 3): BQL (BQL represents below quantifiable limits (0.5 µg/mL))
- SAH-EJ1 concentration in plasma (female, 15 mg/kg IV, day 1, 8 h, mouse 2 of 3): BQL (BQL represents below quantifiable limits (0.5 µg/mL))
- SAH-EJ1 concentration in plasma (female, 15 mg/kg IV, day 1, 8 h, mouse 3 of 3): BQL (BQL represents below quantifiable limits (0.5 µg/mL))
- SAH-EJ1 concentration in plasma (female, 15 mg/kg IV, day 1, 24 h, mouse 1 of 3): BQL (BQL represents below quantifiable limits (0.5 µg/mL))
- SAH-EJ1 concentration in plasma (female, 15 mg/kg IV, day 1, 24 h, mouse 2 of 3): BQL (BQL represents below quantifiable limits (0.5 µg/mL))
- SAH-EJ1 concentration in plasma (female, 15 mg/kg IV, day 1, 24 h, mouse 3 of 3): BQL (BQL represents below quantifiable limits (0.5 µg/mL))
- time by which peptide was not detectable in plasma (male mice, highest body weight dosage): ≤ 4 h
- SAH-EJ1 concentration in plasma (male, 5 mg/kg IV, day 1, 1 h, mouse 3 of 3): BQL (BQL represents below quantifiable limits (0.5 µg/mL))
- SAH-EJ1 concentration in plasma (male, 5 mg/kg IV, day 1, 2 h, mouse 1 of 3): BQL (BQL represents below quantifiable limits (0.5 µg/mL))
- SAH-EJ1 concentration in plasma (male, 5 mg/kg IV, day 1, 2 h, mouse 2 of 3): BQL (BQL represents below quantifiable limits (0.5 µg/mL))
- SAH-EJ1 concentration in plasma (male, 5 mg/kg IV, day 1, 2 h, mouse 3 of 3): BQL (BQL represents below quantifiable limits (0.5 µg/mL))
- SAH-EJ1 concentration in plasma (male, 5 mg/kg IV, day 1, 4 h, mouse 1 of 3): BQL (BQL represents below quantifiable limits (0.5 µg/mL))
- SAH-EJ1 concentration in plasma (male, 5 mg/kg IV, day 1, 4 h, mouse 2 of 3): BQL (BQL represents below quantifiable limits (0.5 µg/mL))
- SAH-EJ1 concentration in plasma (male, 5 mg/kg IV, day 1, 4 h, mouse 3 of 3): BQL (BQL represents below quantifiable limits (0.5 µg/mL))
- SAH-EJ1 concentration in plasma (male, 5 mg/kg IV, day 1, 8 h, mouse 1 of 3): BQL (BQL represents below quantifiable limits (0.5 µg/mL))
- SAH-EJ1 concentration in plasma (male, 5 mg/kg IV, day 1, 8 h, mouse 2 of 3): BQL (BQL represents below quantifiable limits (0.5 µg/mL))
- SAH-EJ1 concentration in plasma (male, 5 mg/kg IV, day 1, 8 h, mouse 3 of 3): BQL (BQL represents below quantifiable limits (0.5 µg/mL))
- SAH-EJ1 concentration in plasma (male, 5 mg/kg IV, day 1, 24 h, mouse 1 of 3): BQL (BQL represents below quantifiable limits (0.5 µg/mL))
- SAH-EJ1 concentration in plasma (male, 5 mg/kg IV, day 1, 24 h, mouse 2 of 3): BQL (BQL represents below quantifiable limits (0.5 µg/mL))
- SAH-EJ1 concentration in plasma (male, 5 mg/kg IV, day 1, 24 h, mouse 3 of 3): BQL (BQL represents below quantifiable limits (0.5 µg/mL))
- SAH-EJ1 concentration in plasma (male, 10 mg/kg IV, day 1, 2 h, mouse 1 of 3): BQL (BQL represents below quantifiable limits (0.5 µg/mL))
- SAH-EJ1 concentration in plasma (male, 10 mg/kg IV, day 1, 2 h, mouse 2 of 3): BQL (BQL represents below quantifiable limits (0.5 µg/mL))
- SAH-EJ1 concentration in plasma (male, 10 mg/kg IV, day 1, 2 h, mouse 3 of 3): BQL (BQL represents below quantifiable limits (0.5 µg/mL))
- SAH-EJ1 concentration in plasma (male, 10 mg/kg IV, day 1, 4 h, mouse 1 of 3): BQL (BQL represents below quantifiable limits (0.5 µg/mL))
- SAH-EJ1 concentration in plasma (male, 10 mg/kg IV, day 1, 4 h, mouse 2 of 3): BQL (BQL represents below quantifiable limits (0.5 µg/mL))
- SAH-EJ1 concentration in plasma (male, 10 mg/kg IV, day 1, 4 h, mouse 3 of 3): BQL (BQL represents below quantifiable limits (0.5 µg/mL))
- SAH-EJ1 concentration in plasma (male, 10 mg/kg IV, day 1, 8 h, mouse 1 of 3): BQL (BQL represents below quantifiable limits (0.5 µg/mL))
- SAH-EJ1 concentration in plasma (male, 10 mg/kg IV, day 1, 8 h, mouse 2 of 3): BQL (BQL represents below quantifiable limits (0.5 µg/mL))
- SAH-EJ1 concentration in plasma (male, 10 mg/kg IV, day 1, 8 h, mouse 3 of 3): BQL (BQL represents below quantifiable limits (0.5 µg/mL))
- SAH-EJ1 concentration in plasma (male, 10 mg/kg IV, day 1, 24 h, mouse 1 of 3): BQL (BQL represents below quantifiable limits (0.5 µg/mL))
- SAH-EJ1 concentration in plasma (male, 10 mg/kg IV, day 1, 24 h, mouse 2 of 3): BQL (BQL represents below quantifiable limits (0.5 µg/mL))
- SAH-EJ1 concentration in plasma (male, 10 mg/kg IV, day 1, 24 h, mouse 3 of 3): BQL (BQL represents below quantifiable limits (0.5 µg/mL))
- SAH-EJ1 concentration in plasma (male, 15 mg/kg IV, day 1, 1 h, mouse 1 of 3): BQL (BQL represents below quantifiable limits (0.5 µg/mL))
- SAH-EJ1 concentration in plasma (male, 15 mg/kg IV, day 1, 2 h, mouse 1 of 3): BQL (BQL represents below quantifiable limits (0.5 µg/mL))
- SAH-EJ1 concentration in plasma (male, 15 mg/kg IV, day 1, 2 h, mouse 3 of 3): BQL (BQL represents below quantifiable limits (0.5 µg/mL))
- SAH-EJ1 concentration in plasma (male, 15 mg/kg IV, day 1, 4 h, mouse 1 of 3): BQL (BQL represents below quantifiable limits (0.5 µg/mL))
- SAH-EJ1 concentration in plasma (male, 15 mg/kg IV, day 1, 4 h, mouse 2 of 3): BQL (BQL represents below quantifiable limits (0.5 µg/mL))
- SAH-EJ1 concentration in plasma (male, 15 mg/kg IV, day 1, 4 h, mouse 3 of 3): BQL (BQL represents below quantifiable limits (0.5 µg/mL))
- SAH-EJ1 concentration in plasma (male, 15 mg/kg IV, day 1, 8 h, mouse 1 of 3): BQL (BQL represents below quantifiable limits (0.5 µg/mL))
- SAH-EJ1 concentration in plasma (male, 15 mg/kg IV, day 1, 8 h, mouse 2 of 3): BQL (BQL represents below quantifiable limits (0.5 µg/mL))
- SAH-EJ1 concentration in plasma (male, 15 mg/kg IV, day 1, 8 h, mouse 3 of 3): BQL (BQL represents below quantifiable limits (0.5 µg/mL))
- SAH-EJ1 concentration in plasma (male, 15 mg/kg IV, day 1, 24 h, mouse 1 of 3): BQL (BQL represents below quantifiable limits (0.5 µg/mL))
- SAH-EJ1 concentration in plasma (male, 15 mg/kg IV, day 1, 24 h, mouse 2 of 3): BQL (BQL represents below quantifiable limits (0.5 µg/mL))
- SAH-EJ1 concentration in plasma (male, 15 mg/kg IV, day 1, 24 h, mouse 3 of 3): BQL (BQL represents below quantifiable limits (0.5 µg/mL))
